Data as given in patent US20240092784A1, “CONDENSED HETEROCYCLIC COMPOUND” (NISSAN CHEMICAL CORPORATION, priority 2020, published 2024).
Structures can show the parent of a compound that is named as a salt.

Molecular target: human SPR (Homo sapiens (Human), UniProt P35270)
Assay: Evaluation Example 2: Measurement of human SPR inhibitory activity (seven concentrations, sepiapterin absorbance at 420 nm)
Assay type: biochemical
Conditions: Evaluation Example 2, seven concentrations 0.14 nM to 100 nM, 240 minutes at room temperature, read-out: IC50
Outline: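 Reactions ran 240 min at room temperature in 100 mM Tris-HCl pH 7.5 with 0.01% BSA. They contained tag-cleaved, E. coli-expressed full-length human SPR (diluted to 150 ng/mL), seven compound concentrations from 0.14 to 100 nM, and sepiapterin/NADPH added as a 120 μM/160 μM solution. Inhibition was calculated from sepiapterin absorbance at 420 nm.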

human SPR, sequence (P35270 whole entry): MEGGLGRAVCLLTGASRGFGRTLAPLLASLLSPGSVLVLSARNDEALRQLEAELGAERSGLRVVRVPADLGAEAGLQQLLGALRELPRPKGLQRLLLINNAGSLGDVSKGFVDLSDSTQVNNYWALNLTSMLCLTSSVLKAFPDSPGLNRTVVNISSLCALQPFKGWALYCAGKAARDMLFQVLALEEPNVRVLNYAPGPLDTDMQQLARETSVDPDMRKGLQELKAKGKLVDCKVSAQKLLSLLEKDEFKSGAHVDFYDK

First: CC[C@@H]1CCCN1C(=O)/C=C/c1c(C)nn2c(O)c(C(=O)NC3CC3)c(=O)n(CC(C)C)c12 [compound 610, (R,E)-N-Cyclopropyl-3-(3-(2-ethylpyrrolidin-1-yl)-3-oxoprop-1-en-1-yl)-7-hydroxy-4-isobutyl-2-methyl-5-oxo-4,5-dihydropyrazolo[1,5-a]pyrimidine-6-carboxamide]
Second: Cc1nn2c(O)c(C(=O)NC3CC3)c(=O)n(CC(C)C)c2c1/C=C/C(=O)N1CCC(F)(F)C1 [compound 565, (E)-N-Cyclopropyl-3-(3-(3,3-difluoropyrrolidin-1-yl)-3-oxoprop-1-en-1-yl)-7-hydroxy-4-isobutyl-2-methyl-5-oxo-4,5-dihydropyrazolo[1,5-a]pyrimidine-6-carboxamide]
The IC50 of the first is 1.8-fold higher: 1.64 nM for the first, 0.93 nM for the second. The second is the more potent here.

`CC(C)(C)Cn1c(=O)c(C(=O)NCC(F)(F)F)c(O)n2nc(Nc3cnccn3)cc12` [Synthesis Example 347, 7-Hydroxy-4-neopentyl-5-oxo-2-(pyrazin-2-ylamino)-N-(2,2,2-trifluoroethyl)-4,5-dihydropyrazolo[1,5-a]pyrimidine-6-carboxamide] and `CC(C)(C)Cn1c(=O)c(C(=O)NC2CC2)c(O)n2nc(Nc3cnc(C(C)(F)F)cn3)cc12` [Synthesis Example 344, N-Cyclopropyl-2-((5-(1,1-difluoroethyl)pyrazin-2-yl)amino)-7-hydroxy-4-neopentyl-5-oxo-4,5-dihydropyrazolo[1,5-a]pyrimidine-6-carboxamide] are within 1.5-fold of each other in IC50: 1.87 nM for the first, 1.69 nM for the second.

`CNc1nn2c(O)c(C(=O)NC3CC3)c(=O)n(CC(C)C)c2c1/C=C/C(=O)N1CCC(F)(F)C1` [Synthesis Example 428, (E)-N-Cyclopropyl-3-(3-(3,3-difluoropyrrolidin-1-yl)-3-oxoprop-1-en-1-yl)-7-hydroxy-4-isobutyl-2-(methylamino)-5-oxo-4,5-dihydropyrazolo[1,5-a]pyrimidine-6-carboxamide] and `CC(C)Cn1c(=O)c(C(=O)NC2CC2)c(O)n2ncc(/C=C/C(=O)N3CCC(C(F)F)C3)c12` (racemic) [compound 596, (E)-N-Cyclopropyl-3-(3-(3-(difluoromethyl)pyrrolidin-1-yl)-3-oxoprop-1-en-1-yl)-7-hydroxy-4-isobutyl-5-oxo-4,5-dihydropyrazolo[1,5-a]pyrimidine-6-carboxamide (racemate)] are within 1.5-fold of each other in IC50: 0.84 nM for the first, 0.96 nM for the second.

`CC(C)Cn1c(=O)c(C(=O)NC2CC2)c(O)n2ncc(/C=C/C(=O)N3CCCOCC3)c12` [compound 461, (E)-3-(3-(1,4-Oxazepan-4-yl)-3-oxoprop-1-en-1-yl)-N-cyclopropyl-7-hydroxy-4-isobutyl-5-oxo-4,5-dihydropyrazolo[1,5-a]pyrimidine-6-carboxamide] and `CC[C@@H]1COCCN1C(=O)/C=C/c1cnn2c(O)c(C(=O)NC3CC3)c(=O)n(CC(C)C)c12` [compound 540, (R,E)-N-Cyclopropyl-3-(3-(3-ethylmorpholino)-3-oxoprop-1-en-1-yl)-7-hydroxy-4-isobutyl-5-oxo-4,5-dihydropyrazolo[1,5-a]pyrimidine-6-carboxamide] are within 1.5-fold of each other in IC50: 0.75 nM for the first, 0.66 nM for the second.

First: COC(C)(C)Cn1c(=O)c(C(=O)NC2CC2)c(O)n2nc(Br)cc12 [Synthesis Example 270, 2-Bromo-N-cyclopropyl-7-hydroxy-4-(2-methoxy-2-methylpropyl)-5-oxo-4,5-dihydropyrazolo[1,5-a]pyrimidine-6-carboxamide]
Second: Cc1cn[nH]c1-c1cc2n(CC(C)(C)C)c(=O)c(C(=O)NC3CC3)c(O)n2n1 [Synthesis Example 287, N-Cyclopropyl-7-hydroxy-2-(4-methyl-1H-pyrazol-5-yl)-4-neopentyl-5-oxo-4,5-dihydropyrazolo[1,5-a]pyrimidine-6-carboxamide]
The IC50 of the first is 2.2-fold lower: 1.16 nM for the first, 2.53 nM for the second. The first is the more potent here.

`CC(C)Cn1c(=O)c(C(=O)NC2CC2)c(O)n2ncc(/C=C/C(=O)N3CC4CCC(C3)O4)c12` [compound 456, (E)-3-(3-(8-Oxa-3-azabicyclo[3.2.1]octan-3-yl)-3-oxoprop-1-en-1-yl)-N-cyclopropyl-7-hydroxy-4-isobutyl-5-oxo-4,5-dihydropyrazolo[1,5-a]pyrimidine-6-carboxamide] and `CC(C)Cn1c(=O)c(C(=O)NC2CC2)c(O)n2ncc(/C=C/C(=O)N3C4CCCC3COC4)c12` [compound 542, (E)-3-(3-(3-Oxa-9-azabicyclo[3.3.1]nonan-9-yl)-3-oxoprop-1-en-1-yl)-N-cyclopropyl-7-hydroxy-4-isobutyl-5-oxo-4,5-dihydropyrazolo[1,5-a]pyrimidine-6-carboxamide] are within 1.5-fold of each other in IC50: 0.58 nM for the first, 0.78 nM for the second.

`CC(C)Cn1c(=O)c(C(=O)NC2CC2)c(O)n2ncc(/C=C/C(=O)N3CCOCC3CC(F)(F)F)c12` (single isomer, unassigned; isomer b) [compound 551, (E)-N-Cyclopropyl-7-hydroxy-4-isobutyl-5-oxo-3-(3-oxo-3-(3-(2,2,2-trifluoroethyl)morpholino)prop-1-en-1-yl)-4,5-dihydropyrazolo[1,5-a]pyrimidine-6-carboxamide (Isomer B)] and `CC(C)Cn1c(=O)c(C(=O)NC2CC2)c(O)n2ncc(/C=C/C(=O)N3CCN(CC(F)(F)F)CC3)c12` [compound 506, (E)-N-Cyclopropyl-7-hydroxy-4-isobutyl-5-oxo-3-(3-oxo-3-(4-(2,2,2-trifluoroethyl)piperazin-1-yl)prop-1-en-1-yl)-4,5-dihydropyrazolo[1,5-a]pyrimidine-6-carboxamide] are within 1.5-fold of each other in IC50: 0.84 nM for the first, 0.8 nM for the second.

Going from `Cc1cnc(-c2cc3n(CC(C)(C)C)c(=O)c(C(=O)NC4CC4)c(O)n3n2)cn1` [Synthesis Example 303, N-Cyclopropyl-7-hydroxy-2-(5-methylpyrazin-2-yl)-4-neopentyl-5-oxo-4,5-dihydropyrazolo[1,5-a]pyrimidine-6-carboxamide] to `CC(C)(C)Cn1c(=O)c(C(=O)NC2CC2)c(O)n2nc(-c3[nH]ncc3C(=O)N3CCC(F)(F)C3)cc12` [Synthesis Example 316, N-Cyclopropyl-2-(4-(3,3-difluoropyrrolidine-1-carbonyl)-1H-pyrazol-5-yl)-7-hydroxy-4-neopentyl-5-oxo-4,5-dihydropyrazolo[1,5-a]pyrimidine-6-carboxamide hydrochloride], the IC50 falls from 2.58 nM to 0.9 nM (2.9-fold).

`Cc1nn2c(O)c(C(=O)NC3CC3)c(=O)n(CC(C)(C)C)c2c1/C=C/C(=O)N1CCOCC1` [compound 582, (E)-N-Cyclopropyl-7-hydroxy-2-methyl-3-(3-morpholino-3-oxoprop-1-en-1-yl)-4-neopentyl-5-oxo-4,5-dihydropyrazolo[1,5-a]pyrimidine-6-carboxamide] and `Nc1nn2c(O)c(C(=O)NC3CC3)c(=O)n(CC3CC3)c2c1/C=C/C(=O)N1CCOCC1` [Synthesis Example 419, (E)-2-Amino-N-cyclopropyl-4-(cyclopropylmethyl)-7-hydroxy-3-(3-morpholino-3-oxoprop-1-en-1-yl)-5-oxo-4,5-dihydropyrazolo[1,5-a]pyrimidine-6-carboxamide hydrochloride] are within 1.5-fold of each other in IC50: 0.63 nM for the first, 0.83 nM for the second.

First: CC(C)Cn1c(=O)c(C(=O)NC2CC2)c(O)n2ncc(/C=C/C(=O)N(C)Cc3ccn(C)n3)c12 [compound 604, (E)-N-Cyclopropyl-7-hydroxy-4-isobutyl-3-(3-(methyl((1-methyl-1H-pyrazol-3-yl)methyl)amino)-3-oxoprop-1-en-1-yl)-5-oxo-4,5-dihydropyrazolo[1,5-a]pyrimidine-6-carboxamide]
Second: CC(C)Cn1c(=O)c(C(=O)NC2CC2)c(O)n2ncc(/C=C/C(C)(C)C)c12 [Synthesis Example 243, (E)-N-Cyclopropyl-3-(3,3-dimethylbut-1-en-1-yl)-7-hydroxy-4-isobutyl-5-oxo-4,5-dihydropyrazolo[1,5-a]pyrimidine-6-carboxamide]
The IC50 of the first is 1.7-fold lower: 0.92 nM for the first, 1.58 nM for the second. The first is the more potent here.

`CC(C)Cn1c(=O)c(C(=O)NC2CC2)c(O)n2ncc(/C=C/C(=O)N3CCOCC3CC(F)(F)F)c12` (single isomer, unassigned) [compound 550, (E)-N-Cyclopropyl-7-hydroxy-4-isobutyl-5-oxo-3-(3-oxo-3-(3-(2,2,2-trifluoroethyl)morpholino)prop-1-en-1-yl)-4,5-dihydropyrazolo[1,5-a]pyrimidine-6-carboxamide (Isomer] showed an IC50 of 0.79 nM.

Same assay, conditions: sepiapterin absorbance, Table 41, read-out: concentration at 50% inhibition of human SPR (IC50)

First: CC(C)Cn1c(=O)c(C(=O)NC2CC2)c(O)n2ncc(/C=C/C(=O)N3CCc4cc(C#N)ccc43)c12 [Synthesis Example 732, (E)-3-(3-(5-Cyanoindolin-1-yl)-3-oxoprop-1-en-1-yl)-N-cyclopropyl-7-hydroxy-4-isobutyl-5-oxo-4,5-dihydropyrazolo[1,5-a]pyrimidine-6-carboxamide]
Second: Cc1nn2c(O)c(C(=O)NC3CC3)c(=O)n(CC(C)C)c2c1/C=C/C(=O)N1CCc2cncnc21 [Synthesis Example 752, (E)-N-Cyclopropyl-3-(3-(5,6-dihydro-7H-pyrrolo[2,3-d]pyrimidin-7-yl)-3-oxoprop-1-en-1-yl)-7-hydroxy-4-isobutyl-2-methyl-5-oxo-4,5-dihydropyrazolo[1,5-a]pyrimidine-6-carboxamide]
The IC50 of the first is 1.9-fold higher: 1.7 nM for the first, 0.88 nM for the second.

`CC(C)Cn1c(=O)c(C(=O)NC2CC2)c(O)n2ncc(/C=C/C(=O)N3CCN(C4CC(F)(F)C4)C[C@@H]3C)c12` [Synthesis Example 726, (S,E)-N-Cyclopropyl-3-(3-(4-(3,3-difluorocyclobutyl)-2-methylpiperazin-1-yl)-3-oxoprop-1-en-1-yl)-7-hydroxy-4-isobutyl-5-oxo-4,5-dihydropyrazolo[1,5-a]pyrimidine-6-carboxamide] and `Cc1nn2c(O)c(C(=O)NC3CC3)c(=O)n(CC(C)C)c2c1/C=C/C(=O)N1CCN(C2CC(F)(F)C2)C[C@H]1C` [Synthesis Example 697, (R,E)-N-Cyclopropyl-3-(3-(4-(3,3-difluorocyclobutyl)-2-methylpiperazin-1-yl)-3-oxoprop-1-en-1-yl)-7-hydroxy-4-isobutyl-2-methyl-5-oxo-4,5-dihydropyrazolo[1,5-a]pyrimidine-6-carboxamide] are within 1.5-fold of each other in IC50: 1.35 nM for the first, 1.22 nM for the second.
